Source: patent publication US20170027172A1, “USE OF SUBSTITUTE OXO TETRAHYDROQUINOLINE SULFONAMIDES OR SALTS THEREOF FOR RAISING STRESS TOLERANCE OF PLANTS” (BAYER CROPSCIENCE AKTIENGESELLSCHAFT, priority 2014, published 2017)

Biological target: T1, phosphatase ABI1 via the co-regulator RCAR11/PYR1 (Arabidopsis thaliana, UniProt O49686+P49597)
T1 sequence (O49686 1-191): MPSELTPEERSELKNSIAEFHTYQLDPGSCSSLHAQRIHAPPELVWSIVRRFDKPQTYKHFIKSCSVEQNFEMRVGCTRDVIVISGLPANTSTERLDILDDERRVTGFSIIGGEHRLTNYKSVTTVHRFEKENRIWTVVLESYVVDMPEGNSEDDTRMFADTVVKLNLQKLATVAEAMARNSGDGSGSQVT
T1 sequence (P49597 1-434): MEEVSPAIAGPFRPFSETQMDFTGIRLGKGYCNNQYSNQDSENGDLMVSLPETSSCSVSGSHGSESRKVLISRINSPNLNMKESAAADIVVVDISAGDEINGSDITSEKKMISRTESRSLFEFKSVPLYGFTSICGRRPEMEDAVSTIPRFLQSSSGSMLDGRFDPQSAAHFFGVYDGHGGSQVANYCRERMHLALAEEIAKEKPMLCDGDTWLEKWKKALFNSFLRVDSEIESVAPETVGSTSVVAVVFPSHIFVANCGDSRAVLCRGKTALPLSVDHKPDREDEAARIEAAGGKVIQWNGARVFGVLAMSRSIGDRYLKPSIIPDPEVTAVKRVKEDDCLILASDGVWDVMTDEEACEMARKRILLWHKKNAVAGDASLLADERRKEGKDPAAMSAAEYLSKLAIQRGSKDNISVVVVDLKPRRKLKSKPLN
Test: In vitro inhibition of the phosphatase ABI1 via the co-regulator RCAR11/PYR1, MUP dephosphorylation
Format: biochemical
Parameters: dose or concentration left out as unconfirmed
Details: in a solution of DMSO and water; fluorescence at 460 nm
Method in brief: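 Arabidopsis ABI1 (0.15 μg/well) with RCAR11/PYR1 (0.30 μg/well) in Tris-HCl pH 8, NaCl, MnCl2, DTT, Tween20; MUP substrate, 20 min at 35 °C, fluorescence ex 340/em 460 nm. Compounds tested at 5 mM in DMSO/water, optionally pre-treated with porcine liver esterase; inhibition banded ≥90/70/50/30%.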

COC(=O)CCN1C(=O)CCc2cc(NS(=O)(=O)Cc3ccc(F)cc3)ccc21 [A51-158]
ABI1 inhibition: +++ (90%>inhibition≧70%)
